Experimental data reported in publication PMC7216583 (Parasites & Vectors, 2020).
Where two headings read alike, the source gives them in different places.

Experiments:
EGFR = test system: EGFR; parameters: method as in S-inhibitor; conditions: ref S-inhibitor; cited from earlier work
[1] = test system: Toxoplasma gondii RH-2F tachyzoites; assay: microbe, parasite or virus in culture; conditions: 72 h
VEGFR2 = test system: VEGFR2; parameters: method as in S-inhibitor; conditions: ref S-inhibitor; cited from earlier work
Flt = test system: Flt; parameters: method as in S-inhibitor; conditions: ref S-inhibitor; cited from earlier work
HER2/ErbB2 = test system: HER2/ErbB2; parameters: method as in S-inhibitor; conditions: ref S-inhibitor; cited from earlier work
CB2 = target: CB2; parameters: method as in S-inhibitor; conditions: ref S-inhibitor; cited from earlier work
CDK1/cyclin B = test system: CDK1/cyclin B; parameters: method as in S-inhibitor; conditions: ref S-inhibitor; cited from earlier work
CDK5/p35 = conditions: read-out: IC50, CDK5/p35; ref S-inhibitor; cited from earlier work
CDK3/Cyclin E = conditions: read-out: IC50, CDK3/Cyclin E; ref S-inhibitor; cited from earlier work
CDK6/Cyclin D3 = conditions: read-out: IC50, CDK6/Cyclin D3; ref S-inhibitor; cited from earlier work
CDK4/cyclin D1 = conditions: read-out: IC50, CDK4/Cyclin D1; ref S-inhibitor; cited from earlier work
S6K = test system: S6K; parameters: method as in S-inhibitor; conditions: ref S-inhibitor; cited from earlier work
Akt3 = test system: Akt3; parameters: method as in S-inhibitor; conditions: ref S-inhibitor; cited from earlier work
Akt1 = test system: Akt1; parameters: method as in S-inhibitor; conditions: ref S-inhibitor; cited from earlier work
Akt2 = test system: Akt2; parameters: method as in S-inhibitor; conditions: ref S-inhibitor; cited from earlier work
MEK1 = test system: MEK1; parameters: method as in library vendor description; conditions: ref library vendor description; cited from earlier work
c-Met = test system: c-Met; parameters: method as in S-inhibitor; conditions: ref S-inhibitor; cited from earlier work
Tyro3 = test system: Tyro3; parameters: method as in S-inhibitor; conditions: ref S-inhibitor; cited from earlier work
Ron = test system: Ron; parameters: method as in S-inhibitor; conditions: ref S-inhibitor; cited from earlier work
in vitro = conditions: human, Host viability (%) mean
HCV NS5A = test system: HCV NS5A; parameters: method as in S-inhibitor; conditions: ref S-inhibitor; cited from earlier work
hSGLT2 = conditions: read-out: EC50, hSGLT2; ref S-inhibitor; cited from earlier work
[2] = target: PLK1 (Polo-like kinase 1); parameters: method as in S-inhibitor; conditions: ref S-inhibitor; cited from earlier work
Aurora B = test system: Aurora B; parameters: method as in S-inhibitor; conditions: ref S-inhibitor; cited from earlier work
[3] = target: T. brucei Aurora kinase-1 (TbAUK1); parameters: method as in S-inhibitor; conditions: ref S-inhibitor; cited from earlier work
PDGFRα = test system: PDGFRα; parameters: method as in S-inhibitor; conditions: ref S-inhibitor; cited from earlier work
PDGFRβ = test system: PDGFRβ; parameters: method as in S-inhibitor; conditions: ref S-inhibitor; cited from earlier work
VEGFR1 = test system: VEGFR1; parameters: method as in S-inhibitor; conditions: ref S-inhibitor; cited from earlier work
ATM = test system: ATM; parameters: method as in S-inhibitor; conditions: ref S-inhibitor; cited from earlier work
p38 MAPK = test system: p38 MAPK; parameters: method as in S-inhibitor; conditions: ref S-inhibitor; cited from earlier work
[4] = read-out: Parasite inhibition (%) mean, preliminary screen, mean

**Q.** With `CCN1CCN(Cc2ccc(-c3cc4c(N[C@H](C)c5ccccc5)ncnc4[nH]3)cc2)CC1` [AEE788 (NVP-AEE788)] as the compound, how does the IC50 (EGFR) read?
**A.** 2 nM

**Q.** And the inhibition of growth at 5 µM [1, 4]?
**A.** -2.1%

**Q.** What about the IC50 (VEGFR2) of the same compound?
**A.** 77 nM

**Q.** What about the IC50 (Flt) of the same compound?
**A.** 59 nM

**Q.** And the IC50 (HER2/ErbB2)?
**A.** 6 nM

**Q.** With `CN1CCCCC1Cn1cc(C(=O)c2cc([N+](=O)[O-])ccc2I)c2ccccc21` (centres unmarked) [AM-1241] as the compound, how does the inhibition of growth at 5 µM [1, 4] read?
**A.** -8.8%

**Q.** And the Ki (CB2)?
**A.** 3.4 nM

**Q.** For `O=C(NC1CCNCC1)c1[nH]ncc1NC(=O)c1c(Cl)cccc1Cl` [AT7519], which inhibition of growth at 5 µM [1, 4] is on record?
**A.** -11.7%

**Q.** What about the IC50 (CDK5/p35) of the same compound?
**A.** 13 nM

**Q.** And the IC50 (CDK3/Cyclin E)?
**A.** 360 nM

**Q.** And the IC50 (CDK6/Cyclin D3)?
**A.** 170 nM

**Q.** With `Clc1ccc(C2(c3ccc(-c4cn[nH]c4)cc3)CCNCC2)cc1` [AT7867] as the compound, how does the IC50 (S6K) read?
**A.** 85 nM

**Q.** What about the inhibition of growth at 5 µM [1, 4] of the same compound?
**A.** 46.4%

**Q.** What about the IC50 (Akt3) of the same compound?
**A.** 47 nM

**Q.** What about the IC50 (Akt1) of the same compound?
**A.** 32 nM

**Q.** What about the IC50 (Akt2) of the same compound?
**A.** 17 nM

**Q.** With `Cn1cnc2c(F)c(Nc3ccc(Br)cc3Cl)c(C(=O)NOCCO)cc21` [AZD6244 (Selumetinib)] as the compound, how does the inhibition of growth at 5 µM [1, 4] read?
**A.** 0.6%

**Q.** What about the IC50 (MEK1) of the same compound?
**A.** 14 nM

**Q.** Which inhibition of growth at 5 µM [1, 4] does the source give for `CCOc1ccn(-c2ccc(F)cc2)c(=O)c1C(=O)Nc1ccc(Oc2ccnc(N)c2Cl)c(F)c1` [BMS 777607] here?
**A.** 80.6%

**Q.** And the IC50 (c-Met)?
**A.** 3.9 nM

**Q.** What about the IC50 (Tyro3) of the same compound?
**A.** 4.3 nM

**Q.** And the IC50 (Ron)?
**A.** 1.8 nM

**Q.** And the viability at 72 h (in vitro)?
**A.** 72%

**Q.** Which results are given for `COC(=O)N[C@H](C(=O)N1CCC[C@H]1c1ncc(-c2ccc(-c3ccc(-c4cnc([C@@H]5CCCN5C(=O)[C@@H](NC(=O)OC)C(C)C)[nH]4)cc3)cc2)[nH]1)C(C)C` [Daclatasvir (BMS-790052)]?
**A.** inhibition of growth at 5 µM [1, 4]: 3.9%; EC50 (HCV NS5A): 0.009 to 0.05 nM

**Q.** What does the source list for `CCOc1ccc(Cc2cc([C@@H]3O[C@H](CO)[C@@H](O)[C@H](O)[C@H]3O)ccc2Cl)cc1` [Dapagliflozin]?
**A.** EC50 (hSGLT2): 1.1 nM; inhibition of growth at 5 µM ([1]; read-out: Parasite inhibition (%) mean): 1.9%

**Q.** Which inhibition of growth at 5 µM [1, 4] does the source give for `COc1ccc(S(=O)(=O)N(C(C)=O)c2ccccc2/C=C/c2cc[n+]([O-])cc2)cc1` [HMN-214] here?
**A.** -11.6%

**Q.** What about the IC50 [2] of the same compound?
**A.** 118 nM

**Q.** For `CCS(=O)(=O)Nc1ccc2c(c1)/C(=C(/Nc1ccc(CN3CCCCC3)cc1)c1ccccc1)C(=O)N2` [Hesperadin], which inhibition of growth at 5 µM [1, 4] is on record?
**A.** 66.8%

**Q.** What about the IC50 (Aurora B) of the same compound?
**A.** 250 nM

**Q.** And the IC50 [3]?
**A.** 40 nM

**Q.** Which IC50 (PDGFRα) does the source give for `CCCNC(=O)Nc1ccc(Oc2ncnc3cc(OC)c(OC)cc23)cc1Cl` [KRN 633] here?
**A.** 965 nM

**Q.** And the inhibition of growth at 5 µM [1, 4]?
**A.** 73.8%

**Q.** What about the IC50 (VEGFR2) of the same compound?
**A.** 160 nM

**Q.** And the IC50 (PDGFRβ)?
**A.** 9850 nM

**Q.** And the viability at 72 h (in vitro)?
**A.** 70.6%

**Q.** And the IC50 (VEGFR1)?
**A.** 170 nM

**Q.** What does the source list for `C[C@@H]1CN(CC(=O)Nc2ccc3c(c2)Cc2cccc(-c4cc(=O)cc(N5CCOCC5)o4)c2S3)C[C@H](C)O1` [KU-60019]?
**A.** inhibition of growth at 5 µM [1, 4]: 2%; IC50 (ATM): 6.3 nM

**Q.** Which results are given for `CC(C)(C)Cn1c(N)nc2ccc(-c3[nH]c(C(C)(C)C)nc3-c3ccc(F)cc3)nc21` [LY2228820]?
**A.** inhibition of growth at 5 µM [1, 4]: -12.7%; IC50 (p38 MAPK): 7 nM
